Read-outs that look alike come from different tables or passages of the source.
Columns and labels:
[1] = tested on: rat osteocalcin promoter; experiment: OCN (osteocalcin) promoter assay in RG-15 (ROS 17/2.8) cells; format: cell-based
In short: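 Rat osteoblast-like RG-15 (ROS 17/2.8) cells stably carry the rat osteocalcin promoter fused to luciferase. They were treated with compounds for 48 h in medium with 2% FBS and 0.01% DMSO. EC50 was derived from luciferase activity in cell lysates.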

[2] = biological target: T1, RXR-VDR heterodimer (Homo sapiens, UniProt P11473); experiment: RXR-VDR heterodimerization assay (SaOS-2 cells); format: cell-based
T1 construct: Add the Gal-4-RXR-DEF and VP16-VDR-LBD; expressed in transfected cells; host or cells: SaOS-2 cells
T1 sequence (P11473 127-423 limits assumed): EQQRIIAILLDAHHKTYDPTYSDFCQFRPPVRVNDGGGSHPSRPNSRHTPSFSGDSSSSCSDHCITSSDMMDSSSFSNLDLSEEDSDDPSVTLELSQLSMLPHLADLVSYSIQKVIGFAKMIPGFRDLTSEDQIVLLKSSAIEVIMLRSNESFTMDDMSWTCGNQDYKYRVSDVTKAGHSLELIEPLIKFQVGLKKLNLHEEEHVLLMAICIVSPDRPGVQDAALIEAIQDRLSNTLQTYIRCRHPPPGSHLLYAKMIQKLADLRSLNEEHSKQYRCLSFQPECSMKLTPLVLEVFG
T1 sequence (P19793 201-462 partner limits assumed): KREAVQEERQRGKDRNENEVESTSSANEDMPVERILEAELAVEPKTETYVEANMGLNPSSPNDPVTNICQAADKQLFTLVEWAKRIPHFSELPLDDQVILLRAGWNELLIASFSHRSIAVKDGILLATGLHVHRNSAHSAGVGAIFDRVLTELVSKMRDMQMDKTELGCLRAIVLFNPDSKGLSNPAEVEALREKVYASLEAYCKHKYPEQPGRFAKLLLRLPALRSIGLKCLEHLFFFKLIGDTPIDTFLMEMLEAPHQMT
From the text: 2. The RXR-VDR heterodimerization (SaOS-2 cells) test is described in the “Assay” section of the Description, infra.
1. The RXR-VDR heterodimerAssay:
This assay provides the VDR activity of a test compound.
(1) Materials and Method for RXR-VDR Heterodimerization Assay:
Luciferase Assay Reagent: • Use Steady-Glo Luciferase Reagent from Promega (Cat # E2550) Consists of: • a. E2533 Assay Substrate, lyopholized product and • b. […] DAY 2: Transfection Step 1: DNA and Media • Add plain DMEM media to tubes for mixing the DNA • Add the Reporter gene pFR-LUC • Add the Gal-4-RXR-DEF and VP16-VDR-LBD Step 2: FuGENE and Media • Prepare plain DMEM media in a ubes for mixing FuGENE • Add FuGENE 6 Transfection Reagent • Incubate Step 3: FuGENE, DNA and Media Complex • Add FuGENE Media complex from step 2 to DNA Media complex from step 1 • Incubate Step 4: FuGENE, DNA and Media Complex to-well plate • Add FuGENE-DNA-Media complex from step 3 to each plate • Incubate. […] Day 4: Luciferase Assay • Read the plates after drug treatment • Remove part of media from all the wells and leave remainder • Add Steady-Glo Luciferase Reagent mixture/wells • Incubate • Count each well using a Luminescence counter, Top Count NXT by Packard
Set a delay between plates to reduce the background.

[3] = biological target: T2, VDR (Homo sapiens, UniProt P11473); experiment: VDR CTF (Caco-2 cell co-transfection assay); format: cell-based; conditions: Caco-2 cells
T2 construct: the receptor expression vector pGa14-VDR-LBD (10 ng); expressed in transfected cells; host or cells: Caco-2 cells
T2 sequence (P11473 127-423 limits assumed): T1 sequence (P11473 127-423 limits assumed)
Description: 3. The VDR CTF (Caco-2 cells) test is described in the “Assay” section of the Description, infra.
2. The Caco-2 Cell Co-Transfection Assay:
The Caco-2 cell assay is an indicator for the undesirable condition of hypercalcemia. This co-transfection assay is a surrogate assay for in vivo calcemic activity of VDR ligands. […] Preferred assay results are greater than 1000 nM.
(2) Materials and Method for The Caco-2 Cell Assay:
Caco-2 cells, grown in phenol red free, DMEM (Invitrogen, Carlsbad, Calif.) containing 10% charcoal-stripped FCS (Hyclone, Logan, Utah), were transfected with Fugene 6 reagent (Roche Diagnostics, Indianapolis, Ind.). Cells (5000/well) were plated 18 h before transfection in a 96 well plate. The Cells were transfected with Gal-4-responsive reporter pFRLuc (150 ng, Stratagene, La Jolla Calif.) and the receptor expression vector pGa14-VDR-LBD (10 ng), along with Fugene 6 reagent (0.2 µl/well). The DNA-Fugene complex was formed by incubating the mixture for 30 min at room temperature. The cells were transfected in triplicate for 5 h, and treated with various concentrations of VDR ligands (form 0.01 nM to 10,000 nM concentration range) 18 h post-transfection. The luciferase activity was quantified using Steady-Glo reagent kit (Promega, Madison, Wis.) as per manufacturer's specifications.

[4] = Mouse hypercalcemia assay (six day, serum ionized calcium); format: in vivo
Description: 5. The Mouse Hypercalcemia test is described in the “Assay” section of the Description, infra.
4. The Mouse Hypercalcemia Assay
The Mouse Hypercalcemia Assay is a six day hypercalcemia test for toxicity and selectivity. Acceptable test results are levels greater than 300 μg/kg/day. Preferred assay results are levels greater than 1000 μg/kg/day.
(4) Materials and Method for The Mouse Hypercalcemia Assay:
Weanling, virus-antibody-free, five to six weeks old female DBF mice (Harlan, Indianapolis, Ind.) are used for all the studies. Animals are allowed to acclimate to local vivarium conditions for 2 days. […] The animals then are divided into groups with 4-5 mice per group. Different doses of test compounds prepared in 10% Ethanol and 90% sesame oil are administered to mice orally via gavage for 6 days. 1α-25(OH)2D3 0.5 μg/kg/d was also given to one group of mice as the positive control. Serum ionized calcium is evaluated at 6 hours after the last dosing under isoflurane anesthesia by Ciba-Corning Ca++/PH Analyzer, (Model 634, Chiron Diagnostics Corp., East Walpole, Mass.). Raw data of group differences is assessed by analysis of variance (ANOVA) using Fisher's protected least significant difference (PLSD) where the significance level was P<0.05.

| EC50 ([1]; Rattus norvegicus) [nM] | EC50 [2] [nM] | EC50 [3] [nM] | SMILES | Mouse Hypercal [4] [µg/kg/day] | EC50 [1] [nM] |
| --- | --- | --- | --- | --- | --- |
| 326 | 323 | 1060 | CCC(CC)(c1ccc(OCC(O)C(C)(C)C)c(C)c1)c1cc(C)c(C(=O)OC)s1 (single isomer, unassigned) [Ex. 6B] |  |  |
|  | 212 | 245 | CCC(CC)(c1ccc(OCS(C)(=O)=O)c(C)c1)c1cc(C)c(CCC(O)C(C)(C)C)s1 (single isomer, unassigned) [Ex. 15B] |  |  |
| 110 | 474 |  | CCC(CC)(c1ccc(OCC(O)C(C)(C)C)c(C)c1)c1ccc(S(=O)(=O)NCC(=O)OC)s1 (single isomer, unassigned) [Ex. 152] |  |  |
| 146 |  | 1030 | CCC(CC)(c1ccc(OCC(O)C(C)(C)C)c(C)c1)c1ccc(C(=O)OC)s1 (centres unmarked) [Ex. 5] |  |  |
|  | 431 | 901 | CCC(CC)(c1ccc(OCC(O)C(C)(C)C)c(C)c1)c1cc(C)c(S(=O)(=O)NCC(=O)OC)s1 (centres unmarked) [Ex. 136] |  |  |

| SMILES | EC50 ([1]; Rattus norvegicus) [nM] | EC50 [2] [nM] | EC50 [3] [nM] | Mouse Hypercal [4] [µg/kg/day] | EC50 [1] [nM] |
| --- | --- | --- | --- | --- | --- |
| CCCc1cc(C(CC)(CC)c2ccc(C(=O)O)s2)ccc1OCC(O)C(C)(C)C (single isomer, unassigned) [Ex. 95, 3′-[4-(2-hydroxy-3,3-dimethylbutoxy)-3-n-propylphenyl]-3′-[5-carboxy-thiophen-2-yl]pentane] |  | 421 | 1180 | >6000 | 21.4 |
| CCc1cc(C(CC)(CC)c2ccc(C(=O)O)s2)ccc1OCC(O)C(C)(C)C (single isomer, unassigned) [Ex. 101, 3′-[4-(2-hydroxy-3,3-dimethylbutoxy)-3-ethylphenyl]-3′-[5-carboxy-thiophen-2-yl]pentane] |  | 379 |  | 12000 | 29.4 |
| CCC(CC)(c1ccc(OCC(C)(O)C(C)(C)C)c(OC)c1)c1ccc(C(=O)N[C@H](C)C(=O)O)s1 (single isomer, unassigned) [Ex. 117, d-3′-[4-(2-hydroxy-2,3,3-trimethylbutoxy)-3-methoxyphenyl]-3′-[5-(carboxy-1-ethylamino)carbonyl-thiophen-2-yl]pentane] |  | 2210 |  |  | 101 |
